Source: patent publication US11286268B1, “EIF4E-inhibiting compounds and methods” (EFFECTOR THERAPEUTICS, INC., priority 2019, dated 2022)
Read-outs that look alike come from different tables or passages of the source.

Target: recombinant eIF4E (Homo sapiens (Human), UniProt P06730)
Assay: Fluorescence polarization competition assay for eIF4E binding potency
Summary of the method: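 Protein and fluorescent cap-analog probe (EDA-m7GDP-ATTO-550) were mixed first for 5 min, after which serially diluted compound was added to final 75 nM eIF4E, 20 nM probe, 1% DMSO. Reactions equilibrated 30 min at room temperature before polarization was measured.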

[1] = inhibition of eIF4E/EDA-m7GDP-ATTO-550 binding, calculated IC50 values, Table 4B, read-out: IC50
[2] = fluorescence polarization competition, 75 nM recombinant eIF4E, 20 nM EDA-m7GDP-ATTO-550, IC50 class, read-out: elF4E FP
[3] = inhibition of eIF4E/EDA-m7GDP-ATTO-550 binding by 50%, Table 4B calculated values, read-out: IC50

Chain of recombinant eIF4E (P06730 whole entry): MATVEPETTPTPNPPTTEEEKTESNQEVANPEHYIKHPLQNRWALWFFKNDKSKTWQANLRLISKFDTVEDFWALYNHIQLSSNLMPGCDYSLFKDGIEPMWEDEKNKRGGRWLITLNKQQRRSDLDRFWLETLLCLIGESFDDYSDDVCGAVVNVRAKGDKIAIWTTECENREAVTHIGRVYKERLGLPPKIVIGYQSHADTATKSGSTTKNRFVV

Cc1cc(-c2cc(Cl)ccc2OCCn2c(C)nc3cc(C(F)(F)F)c(-c4ccc(F)cn4)c(C#N)c3c2=O)c2scc(C(=O)O)c2n1 [compound 1381]
IC50 [1]: 7.96 nM

Cc1nc2cnc(N(C)C3CCN(CC(C)(F)F)CC3)c(C(N)=O)c2c(=O)n1CC#Cc1ccc(Cl)cc1-c1ccnc2c(C(=O)O)csc12 [compound 1961]
IC50 [1]: 211 nM

Cc1nc2ccc(OCCN(C)C)c(C#N)c2c(=O)n1CCOc1ccc(Cl)cc1-c1ccnc2c(C(=O)O)csc12 [compound 457]
IC50 [2]: < 50 nM | IC50 [3]: 11.2 nM

Cc1nc2cc(CN(C)C)c(OC(F)F)c(C#N)c2c(=O)n1CCOc1ccc(Cl)cc1-c1cccc(C(=O)O)c1 [compound 806]
IC50 [2]: < 50 nM | IC50 [3]: 3.58 nM

Cc1nc2cnc(N(C)C3CCN(CC(F)(F)c4ccccc4)CC3)c(C#N)c2c(=O)n1CC#Cc1ccc(Cl)cc1-c1ccnc2c(C(=O)O)csc12 [compound 1555]
IC50 [1]: 23.9 nM

Cc1nc2cc(C(F)(F)F)c(N3CCN(C)CC3)cc2c(=O)n1CCOc1ccc(Cl)cc1-c1ccnc2c(C(=O)O)csc12 [compound 1230]
IC50 [2]: < 50 nM | IC50 [1]: 10.3 nM

Cc1cc(-c2cc(Cl)ccc2OCCn2c(C)nc3cc(C(F)F)c(-c4cc(F)cnc4C)c(C#N)c3c2=O)c2scc(C(=O)O)c2n1 [compound 438]
IC50 [2]: < 50 nM | IC50 [3]: 9.16 nM

CCN(c1ncc2nc(C)n(CC#Cc3ccc(Cl)cc3-c3ccnc4c(C(=O)O)csc34)c(=O)c2c1C#N)C1CCN([C@H]2C[C@H](F)C2)CC1 [compound 1795]
IC50 [1]: 8.96 nM

Cc1cc(-c2cc(Cl)ccc2OCCn2c(C)nc3c(C)nc(-c4cc(F)cnc4C)c(C#N)c3c2=O)c2scc(C(=O)O)c2n1 [compound 441]
IC50 [2]: < 50 nM | IC50 [3]: 20.4 nM

Cc1cc(-c2cc(Cl)ccc2OCCn2c(C)nc3cc4c(c(C#N)c3c2=O)CCC4N(C)C)c2scc(C(=O)O)c2n1 (centres unmarked) [compound 613]
IC50 [2]: < 50 nM | IC50 [3]: 7.89 nM

Cc1nc2cc(C(F)(F)F)cc(C#N)c2c(=O)n1CCOc1cc(F)c(C#N)cc1-c1ccnc2c(C(=O)O)csc12 [compound 289]
IC50 [2]: < 50 nM | IC50 [3]: 19.1 nM

Cc1nc2ccc(C(N)=O)c(C#N)c2c(=O)n1CCOc1ccc(Cl)cc1-c1ccnc2c(C(=O)O)csc12 [compound 316]
IC50 [2]: < 50 nM | IC50 [3]: 20.4 nM

Cc1cc(-c2cc(Cl)ccc2OCCn2c(C)nc3cc(C(F)(F)F)c(-c4ncccc4F)c(C#N)c3c2=O)c2scc(C(=O)O)c2n1 [compound 751]
IC50 [2]: 50 to 1000 nM | IC50 [3]: 69.8 nM

Cc1cc(-c2cc(Cl)ccc2OCCn2c(C)nc3cnc(-c4cc(Cl)ccc4C)c(C#N)c3c2=O)c2scc(C(=O)O)c2n1 [compound 953]
IC50 [2]: < 50 nM | IC50 [3]: 13.4 nM

Cc1nc2cnc(N(C)C3CCN(CC4(C(F)(F)F)CCC4)CC3)c(C#N)c2c(=O)n1CC#Cc1ccc(Cl)cc1-c1ccnc2c(C(=O)O)csc12 [compound 1588]
IC50 [1]: 26.4 nM

Cc1nc(N2CCN(CC(F)(F)F)CC2)c(C#N)c2c(=O)n(CCOc3ccc(Cl)cc3-c3ccnc4c(C(=O)O)csc34)c(C)nc12 [compound 886]
IC50 [2]: < 50 nM | IC50 [3]: 10.5 nM

Cc1cc(-c2cc(Cl)ccc2OCCn2c(C)nc3cc(Cl)c(NC(C)(C)C)c(C#N)c3c2=O)c2scc(C(=O)O)c2n1 [compound 956]
IC50 [2]: < 50 nM | IC50 [3]: 16.5 nM

Cc1nc2cc(C(F)(F)F)cc(C#N)c2c(=O)n1CCOc1ccc(Cl)cc1-c1ccnc2c(C(=O)O)c(C(C)C)sc12 [compound 667]
IC50 [2]: < 50 nM | IC50 [3]: 46.7 nM

Cc1nc2cnc(N3CCN(C(C)(C)C(F)F)CC3)c(C#N)c2c(=O)n1CCOc1ccc(Cl)cc1-c1ccnc2c(C(=O)O)csc12 [compound 1309]
IC50 [1]: 37.2 nM

Cc1cc(-c2cc(Cl)ccc2OCCn2c(C)nc3cc(C(F)(F)F)c(CC(=O)N(C)C)c(C#N)c3c2=O)c2scc(C(=O)O)c2n1 [compound 909]
IC50 [2]: < 50 nM | IC50 [3]: 13.2 nM

Cc1cc(-c2cc(Cl)ccc2OCCn2c(C)nc3cc(C(F)(F)F)cc(C#N)c3c2=O)c2sc(C)c(C(=O)O)c2n1 [compound 668]
IC50 [2]: < 50 nM | IC50 [3]: 7.76 nM

Cc1nc2cnc(N3CCN(C(C)C(F)F)CC3)c(C#N)c2c(=O)n1CC#Cc1ccc(Cl)cc1-c1ccnc2c(C(=O)O)csc12 (centres unmarked) [compound 1466]
IC50 [1]: 17.9 nM

Cc1nc2cnc(N(C)C3CCN(C4CC(F)(F)C4)CC3)c(C#N)c2c(=O)n1CC#Cc1ccc(Cl)cc1-c1ccnc2c(C(=O)NS(=O)(=O)CC(C)(C)C#N)csc12 [compound 1827]
IC50 [1]: 14.8 nM

Cc1nc2cnc(C3=CCC(F)(F)CC3)c(C#N)c2c(=O)n1CCOc1ccc(Cl)cc1-c1ccnc2c(C(=O)O)csc12 [compound 882]
IC50 [2]: < 50 nM | IC50 [3]: 6.62 nM

CCc1cc(-c2cc(Cl)ccc2OCCn2c(C)nc3cnc(CC)c(C#N)c3c2=O)c2scc(C(=O)O)c2n1 [compound 1062]
IC50 [2]: < 50 nM | IC50 [3]: 6.63 nM

Cc1cc(-c2cc(Cl)ccc2OCCn2c(C)nc3c(C)nc(-c4cc(Cl)ccc4F)c(C#N)c3c2=O)c2scc(C(=O)O)c2n1 [compound 997]
IC50 [2]: < 50 nM | IC50 [3]: 12.2 nM

Cc1cc(-c2cc(Cl)ccc2OCCn2c(C)nc3cc(C(F)(F)F)c(C(C)N(C)C)c(C#N)c3c2=O)c2scc(C(=O)O)c2n1 (centres unmarked) [compound 711]
IC50 [2]: 50 to 1000 nM | IC50 [3]: 77.5 nM

Cc1nc2cc(C(F)(F)F)c(N3CCN(C)CC3)nc2c(=O)n1CC#Cc1ccc(Cl)cc1-c1ccnc2c(C(=O)O)csc12 [compound 682]
IC50 [2]: < 50 nM | IC50 [3]: 6.21 nM

Cc1nc2cc(C(F)(F)F)cc(C#N)c2c(=O)n1CCOc1ccc(Cl)cc1-c1ccc(C(=O)O)c2ncsc12 [compound 226]
IC50 [2]: 50 to 1000 nM | IC50 [3]: 70.7 nM

Cc1cc(-c2cc(Cl)ccc2OCCn2c(C)nc3cc(C(F)F)c(N(C)C)c(C#N)c3c2=O)c2scc(C(=O)O)c2n1 [439a]
IC50 [3]: 2.87 nM

Cc1nc2cnc(N3CCN(C4(C)CC(F)(F)C4)CC3)c(C#N)c2c(=O)n1CC#Cc1ccc(Cl)cc1-c1ccnc2c(C(=O)O)csc12 [compound 1493]
IC50 [1]: 6.83 nM

Cc1cc(-c2cc(Cl)ccc2OCCn2c(C)nc3cnc(N4CCC(O)C4)c(C#N)c3c2=O)c2sc(C)c(C(=O)O)c2n1 (centres unmarked) [compound 1236]
IC50 [2]: < 50 nM | IC50 [1]: 33.9 nM

Cc1cc(-c2cc(Cl)ccc2OCCn2c(C)nc3cc(C(F)F)c(C4CC4)c(C#N)c3c2=O)c2scc(C(=O)O)c2n1 [compound 1048]
IC50 [2]: < 50 nM | IC50 [3]: 13.7 nM

Cc1cc(-c2cc(Cl)ccc2OCCn2c(C)nc3c(C)nc(CC4CCOCC4)c(C#N)c3c2=O)c2scc(C(=O)O)c2n1 [compound 400]
IC50 [2]: < 50 nM | IC50 [3]: 4.68 nM

Cc1cc(-c2cc(Cl)ccc2OCCn2c(C)nc3cc(C(F)(F)F)c(CN4CCN(C)CC4)c(C#N)c3c2=O)c2scc(C(=O)O)c2n1 [compound 485]
IC50 [2]: < 50 nM | IC50 [3]: 8.59 nM

COC(C)c1ncc2nc(C)n(CCOc3ccc(Cl)cc3-c3cc(C)nc4c(C(=O)O)csc34)c(=O)c2c1C#N (centres unmarked) [compound 988]
IC50 [2]: < 50 nM | IC50 [3]: 21.9 nM

Cc1cc(-c2cc(Cl)ccc2OCCn2c(C)nc3cc(C(F)(F)F)c(-c4ccnc(C)c4F)c(C#N)c3c2=O)c2scc(C(=O)O)c2n1 [compound 472]
IC50 [2]: < 50 nM | IC50 [3]: 23.6 nM

Cc1nc2cnc(N3CCN(C4(CCF)CC4)CC3)c(C#N)c2c(=O)n1CCOc1ccc(Cl)cc1-c1ccnc2c(C(=O)O)csc12 [compound 1425]
IC50 [1]: 13 nM

Cc1nc2cnc(N3CCN(C4CC4(C)C)CC3)c(C#N)c2c(=O)n1CCOc1ccc(Cl)cc1-c1ccnc2c(C(=O)O)csc12 (centres unmarked) [compound 1638]
IC50 [1]: 38.8 nM

C#Cc1cc2nccc(-c3cc(Cl)ccc3OCCn3c(C)nc4cc(C(F)(F)F)c(N5CCN(C)CC5)c(C#N)c4c3=O)c2s1 [compound 1244]
IC50 [2]: < 50 nM | IC50 [1]: 19.4 nM

Cc1cc(-c2cc(Cl)ccc2OCCn2c(C)nc3cnc(N4CCc5ccccc54)c(C#N)c3c2=O)c2scc(C(=O)O)c2n1 [compound 982]
IC50 [2]: < 50 nM | IC50 [3]: 20.4 nM

Cc1nc2cnc(N(C)C3CCN(C4CC(F)(F)C4)CC3)c(C#N)c2c(=O)n1CC#Cc1ccc(Cl)cc1-c1ccnc2c(C(=O)NS(=O)(=O)C3COC3)csc12 [compound 1811]
IC50 [1]: 12.7 nM

Cc1nc2cc(C(F)(F)F)cc(C#N)c2c(=O)n1CCOc1ccc(Cl)cc1-c1ccnc2c(C(F)(F)C(=O)O)csc12 [compound 295]
IC50 [2]: 50 to 1000 nM | IC50 [3]: 167 nM

Cc1cc(-c2cc(Cl)ccc2OCCn2c(C)nc3cc(Cl)c(N4C[C@@H](C)N(C)[C@@H](C)C4)c(C#N)c3c2=O)c2sc(C)c(C(=O)O)c2n1 [1090a]
IC50 [3]: 38.3 nM

Cc1nc2cnc(N(C)C3CCN(C4CC4)CC3)c(C#N)c2c(=O)n1CCOc1ccc(Cl)cc1-c1ccnc2c(C(=O)O)csc12 [compound 1319]
IC50 [1]: 13.6 nM

N#Cc1cc2c(=O)n(CCOc3ccc(C(F)F)cc3-c3cccc(C(=O)O)c3)cnc2cn1 [compound 126]
IC50 [2]: > 1000 nM | IC50 [3]: 8360 nM

Cc1nc2cc(C(F)(F)F)cc(C#N)c2c(=O)n1CCOc1ccc(Cl)cc1-c1cnnc2c(C(=O)O)csc12 [compound 314]
IC50 [2]: < 50 nM | IC50 [3]: 42.8 nM

CCc1cc(-c2cc(Cl)ccc2OCCn2c(C)nc3cc(C(F)(F)F)c(N4CCN(C)CC4)c(C#N)c3c2=O)c2sc(C)c(C(=O)O)c2n1 [compound 1087]
IC50 [2]: < 50 nM | IC50 [3]: 39.2 nM

Cc1cc(-c2cc(Cl)ccc2OCCn2c(C)nc3cc(OC(F)F)cc(C#N)c3c2=O)c2scc(C(=O)O)c2n1 [compound 579]
IC50 [2]: < 50 nM | IC50 [3]: 30.2 nM

Cc1nc2cc(C(F)(F)F)cc(Br)c2c(=O)n1CCOc1ccc(Cl)cc1-c1cccc(C(=O)O)c1 [compound 304]
IC50 [2]: > 1000 nM | IC50 [3]: 1600 nM

Cc1nc2cc(C(F)(F)F)cc(C#N)c2c(=O)n1CCOc1ccc(C#N)cc1-c1ccnc2c(C(=O)O)csc12 [compound 287]
IC50 [2]: < 50 nM | IC50 [3]: 47.8 nM

Cc1cc(-c2cc(Cl)ccc2OCCn2c(C)nc3cc4c(c(C#N)c3c2=O)CN(C)CC4)c2scc(C(=O)O)c2n1 [compound 336]
IC50 [2]: < 50 nM | IC50 [3]: 27.9 nM
